Laboratory results taken from PubChem BioAssay AID1053201 (The Scripps Research Institute Molecular Screening Center, 2014).
Activity calls are given as the source filed them. The rule behind the calls is not given here.

Test system: methionyl-tRNA synthetase (Trypanosoma brucei brucei)
Assay: T. brucei MetRS enzyme inhibitors, late-stage follow-up, biochemical, radioactivity, assay provider, round 3 (AID 1053201)
Settings: recombinant T. brucei MetRS enzyme, [3H]methionine tRNA aminoacylation filter assay, 2 h, stronger effect = higher value

inhibition (at 10 µM)	inhibition (inhibition, at 1 µM) [%]	SMILES
-18.4% (inactive)	-21.5	CCN(CC)C(=O)C(=O)c1cn(CCNc2cccc(C(F)(F)F)c2)c2ccccc12
95.6%	91.9	CCN(CC)C(=O)C(=O)c1cn(CC(=O)Nc2cc(Oc3ccccc3F)cc(C(F)(F)F)c2)c2ccccc12
43.1% (inactive)	-5.91	Nc1c(Cl)ncnc1Nc1ccc(C(=O)O)cc1
98.2%	94.7	CCN(CC)C(=O)C(=O)c1cn(CC(=O)Nc2cc(Oc3ccccc3OC)cc(C(F)(F)F)c2)c2ccccc12
-16.7% (inactive)	-13.1	CCN(CC)C(=O)Cc1cn(CC(=O)Nc2cccc(C(F)(F)F)c2)c2ccccc12
8.12% (inactive)	-20.2	CCN(CC)C(=O)C(=O)c1cn(CCNc2cc(Oc3ccccc3)cc(C(F)(F)F)c2)c2ccccc12
47.9% (inactive)	9.14	O=C(Cn1cc(C(=O)C(=O)NCc2ccccc2)c2ccccc21)Nc1cc(Oc2ccccc2)cc(C(F)(F)F)c1
97.3%	93.1	CCN(CC)C(=O)C(=O)c1cn(CC(=O)Nc2cc(Oc3ccc(F)cc3)cc(C(F)(F)F)c2)c2ccccc12
94.1%	92.3	CCN(CC)C(=O)C(=O)c1cn(CC(=O)Nc2cc(Oc3ccc(OC)cc3)cc(C(F)(F)F)c2)c2ccccc12
23.3% (inactive)	-10.2	O=C(Cc1ccc(Nc2nc3ccc(Br)cc3[nH]2)cc1)NCCc1cccs1
